Target: T1, TGFβRI (Homo sapiens, UniProt P36897)
T1 construct: gene TGFBR1
T1 sequence (P36897 34-503): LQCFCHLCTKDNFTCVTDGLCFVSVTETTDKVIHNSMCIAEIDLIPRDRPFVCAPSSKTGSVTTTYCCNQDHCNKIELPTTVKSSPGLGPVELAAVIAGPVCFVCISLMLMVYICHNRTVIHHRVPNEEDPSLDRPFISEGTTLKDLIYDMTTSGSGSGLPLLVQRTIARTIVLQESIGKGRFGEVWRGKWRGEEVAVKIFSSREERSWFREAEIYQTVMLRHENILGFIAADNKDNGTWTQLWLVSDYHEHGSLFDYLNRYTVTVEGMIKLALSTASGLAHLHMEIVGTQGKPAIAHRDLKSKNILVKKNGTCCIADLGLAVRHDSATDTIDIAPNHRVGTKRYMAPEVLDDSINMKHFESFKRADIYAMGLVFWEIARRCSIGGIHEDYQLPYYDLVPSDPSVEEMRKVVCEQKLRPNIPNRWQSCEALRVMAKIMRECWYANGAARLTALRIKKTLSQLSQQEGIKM
Test: ADP-Glo kinase assay
Assay type: biochemical

Q: For CC(C)(O)CNc1nc(Nc2ccncc2F)nc(-c2cccc(C(F)(F)F)n2)n1 [W8, 1-((4-((3-Fluoropyridin-4-yl)Amino)-6-(6-(Trifluoromethyl)Pyridin-2-yl)-1,3,5-Triazin-2-yl)Amino)-2-Methylpropan-2-ol], which IC50 is on record?
A: 10.8 µM

Reference: PMC9653795, “Structure-Guide Design and Optimization of Potential Druglikeness Inhibitors for TGFβRI with the Pyrrolopyrimidine Scaffold” (Pharmaceuticals, 2022)
